{
  "source": "patent US20110151020A1",
  "about": "“ACTIVE SUBSTANCE COMBINATION WITH GEMCITABINE FOR THE TREATMENT OF EPITHELIAL CANCER” (priority 2008, published 2011)",
  "key": {"[1]": {"system": "L3.6pl pancreatic cancer cells", "test": "Tumorigenicity after in vitro pre-treatment and orthotopic implantation", "type": "in vivo, mice", "experimental": "After 96 hours of pretreatment, the remaining viable cells were orthotopically implanted into the pancreas of mice, which received no further treatment in vivo.\nCultivated pancreatic cancer cells were exposed to either Gemcitabine alone representing clinical standard therapy, SB431542 alone, or a combination of Gemcitabine and SB431542 in the above given respective concentrations. After 96 hours of pretreatment, the remaining viable cells were orthotopically implanted into the pancreas of mice, which received no further treatment in vivo.\nA prerequisite of CSC is their ability to form tumours in secondary recipients. Due to the limited number of cancer (stem) cells that can be obtained from primary tissues, it is virtually impossible to reproducibly perform in vivo treatment experiments with fresh patient-derived cells. Therefore, all subsequent in vivo experiments were performed with the established L3.6pl pancreatic cancer cells. The design of the experiment is illustrated in FIG. 20A. […] After 4 days of pretreatment, the surviving cells were orthotopically implanted into the pancreas, which received no further in vivo treatment. Tumorigenicity was first determined by PET scans on day 30 (FIGS. 20B, 20C; left panel) and by final macroscopic and microscopic histological evaluation on day 35 (FIGS. 20B, 20C; right panel).\nAnimals and Orthotopic Implantation of Tumour Cells. Single-cell suspensions were orthotopically implanted into the pancreas of female NMRI nu/nu mice (Janvier, Le Genest-Saint-Isle, France) (Hermann et al., 2007, supra). Size and weight of the pancreatic tumours were monitored.\n(§1) In vitro treatment of pancreatic cancer cells. […] For the evaluation of the in vivo tumorigenicity, […] L3.6pl cells were pretreated with the respective regimen and the remaining viable cells were orthotopically implanted into the pancreas of nude mice and evaluated on day 35. For the systemic infusion assay, cells were labelled with the Qtracker 800 labelling kit (Invitrogen) according to the manufacturer's instructions, and 5×10^5 cells were injected intravenously into mice. After 4 weeks, explanted lungs were scanned for metastases with a near-infrared imaging platform (Odyssey, Li-cor, Lincoln, Nebr.). Positive signals were verified by histology (H&E staining)."}, "[2]": {"system": "pretreated Qtracker-labeled pancreatic cancer cells", "test": "Systemic infusion assay of pretreated cells (lung metastasis)", "type": "in vivo, mice", "details": "cells pretreated in vitro, systemically infused; lungs scanned", "text": "Recently, the inventors have shown that the chemokine receptor CXCR4 and its specific lig- and Stromal-Derived Factor-1 (SDF-1) plays a pivotal role in metastasis of pancreatic CSC (see Hermann et al., 2007, supra). […] Pretreated and Qtracker-labeled cells were systemically infused. Seeded cells were tracked using near infrared scanning of the lungs as the primary target organ. Positive signals were confirmed by histological analysis.\nas §1"}, "[3]": {"system": "CD133+ pancreatic cancer stem cells (L3.6pl cells)", "test": "CD133 content by flow cytometry in L3.6pl pancreatic cancer cells", "type": "cell-based, human", "details": "48 hours of therapy; Gemcitabine 100 ng/ml", "experimental": "In this experiment, potentially effective substances for the targeted elimination of CD133^+ pancreatic cancer stem cells (CSC) were screened by means of flow cytometry following 48 hours of therapy. […] As a Gemcitabine concentration of 100 ng/ml was the lowest concentration capable of achieving a strong relative enrichment for CD133^+ cells through depletion of CD133^− cells, this concentration was chosen for subsequent experiments.\nHuman pancreatic cancer cell line. The highly metastatic human pancreatic cell line L3.6pl was maintained in DMEM medium (Invitrogen, Karlsruhe, Germany) with 12% Fetal Calf Serum (Biochrom, Berlin, Germany), Glutamax (Invitrogen), non-essential amino acids, and vitamins (all from PAN, Aidenbach, Germany) (Hermann et al., 2007, supra). Cultures were kept no longer than 4 weeks after recovery from frozen stocks. CSC spheres were cultured in DMEM-F12 supplemented with B27 (Gibco, Karlsruhe, Germany) and FGF-2 (PeproTech EC, London, United Kingdom) (Hermann et al., 2007, supra).\nCytometry. Pancreatic CSC were identified by CD133/1-APC or CD133-PE (Miltenyi, Bergisch-Gladbach, Germany) (Hermann et al., 2007, supra). Side population experiments were performed as described by Goodell et al. (1996) (see Goodell et al., 1996, J Exp Med 183, 1797-1806) and cells were identified by exclusion of the vital dye Hoechst 33342. To detect activation of the PI3K/Akt/mTOR pathway by means of the phosphorylation status of the s6 ribosomal protein (s6rp), cells cultivated with standard medium were stained with a rabbit anti-phospho-S6 ribosomal protein antibody (Cell Signalling Technology, Danvers, Mass.).\nas §1\nUsing SB431542, a specific inhibitor of the receptors for Nodal and Activin, ALK-4 and -7 respectively, it was investigated whether the content of the CD133(+) population is affected by inhibition of Activin/Nodal signaling. As mutations affecting the TGF-superfamily pathway are very common in pancreatic neoplasms, pancreatic cell lines harboring different mutations in this pathway were screened (Table 1)."}},
  "data": [
    {"compound": "Nc1ccn(C2OC(CO)C(O)C2(F)F)c(=O)n1", "note": "(stereo not shown) [Gemcitabine, 4-amino-1-[3,3-difluoro-4-hydroxy-5-(hydroxymethyl)tetrahydrofuran-2-yl]-1H-pyrimidin-2-one]", "values": [
      {"measurement": "tumour take rate / tumorigenicity", "setting": "[1]; 4 days of pretreatment, PET day 30, histology day 35", "value": "did not generate any effect"},
      {"measurement": "tumorigenicity after in vitro pre-treatment", "setting": "[1]; 96 hours pretreatment, 100 ng/ml Gemcitabine, 5 μM SB431542", "value": "close to no effect"},
      {"measurement": "metastatic activity in vivo", "setting": "[2]", "value": "all mice receiving Gemcitabine-pretreated cells showed evidence for metastasis"},
      {"measurement": "CD133+ cell content", "setting": "[3]", "value": "marked enrichment"}
    ]}
  ]
}
